From paper PMC7774954, “Interactomic affinity profiling by holdup assay: Acetylation and distal residues impact the PDZome-binding specificity of PTEN phosphatase” (PLoS ONE, 2020)
*1 amine or outer side, *2 acyl side, *3 side chain or, on linkers, in order; H or OH if unused. Where a SMILES comes first, the peptide text is derived from it. The star is where a group is joined. X1 = O=C(CCCC[C@@H]1SC[C@@H]2NC(=O)N[C@@H]21)NCCCOCCOCCOCCCN*; Suc = O=C(CCC(=O)[*:2])[*:1]

System: 266 human PDZ domains (PDZome)
Assay: Holdup assay (chromatographic retention, PDZome-binding profile, BI)
Parameters: key to maximal BI / Max BI / BI: binding intensity: 0.00 = no binding, 1.00 = maximal binding; Log(Kd): unit not given here
Experimental: The holdup method is a chromatographic approach in solution developed in our group that allows to measure the binding strength of a peptide, attached to a resin, against a library of domains of a same family. We initially proposed this method to explore the interaction between PBM peptides and the human PDZ domains. Briefly, a soluble cell lysate containing individually overexpressed PDZ domain is incubated until equilibrium with a calibrated amount of streptavidin-resin saturated either with the target biotinylated PBM peptide or with biotin as a reference. The flow-throughs containing the unbound protein fraction are recovered by filtration and loaded on a capillary electrophoresis instrument to quantify the amount of remaining free PDZ. The stronger the steady-state depletion of the PDZ domain in the flow-through as compared to the reference, the stronger the PDZ/PBM binding interaction. The assay is particularly suited to quantitatively evaluate and compare large numbers of interactions. This method delivers, for each PBM/PDZ pair, a "binding intensity" (BI), whose value can in principle range from 0.00 (no binding event detected) to 1.00 (maximal binding event). The approach has been automated and the human PDZ library was recently extended to the complete 266 PDZ domains known in human proteome. […] The high accuracy and efficiency of the holdup assay have been validated previously. Very recently, a manual version of the holdup assay with purified samples and using widespread benchtop equipment has been implemented and has proven to be reliable.
The 266 PDZ domains that constitute the PDZ library (“PDZome V.2”) used in the present work were produced using constructs with optimized boundaries as described previously. All the genes were fused to Maltose-Binding Protein (MBP) or Thioredoxin (THR) tag often used to facilitate the solubilisation of the over-expressed protein, by cloning them into the pETG41A or pETG20A plasmid, respectively. […] The expressed tag-PDZ concentrations were quantified using capillary gel electrophoresis and cell lysates were diluted to reach approximately 5 μM tag-PDZ before freezing in 96-well plates. A detailed protocol of the PDZ library production, expression and benchmarking can be found in [32]. PDZ domains are named according to their originating protein name followed by the PDZ number (e.g. NHERF1-1 as the first PDZ domain of the NHERF1 protein).
The holdup assay was performed on a Tecan freedom Evo200 robot with 384-well plates in singlicate for the three 11-mer PTEN variants and the 13-mer PTEN peptide as described in [31, 32]. Briefly, prior to interaction assay, 2.5 μL of streptavidin resin was saturated in each well with 20 μL of biotinylated PBM peptides (42 μM) and then washed twice with an excess of free biotin, while the reference resin was incubated only with biotin. Right before the holdup experiment, the PDZ library was spiked with an internal standard of lysozyme. Then, the biotin- or PBM-saturated resin was incubated, each in a distinct well of a 384-well plate, with complete cell lysates diluted so that the concentration of the tag-PDZ present in the crude extract is adjusted at 4 μM. After a sufficient time to reach complex equilibrium (15 min.), a fast and mild filtration step is performed and the tag-PDZ concentrations were measured by capillary electrophoresis instrument (LabChip GXII, PerkinElmer, Massachusets, USA). Standard markers were used to convert migration time into molecular weight on the LabChip software and inappropriate molecular weight markers were corrected or excluded.
Holdup data quality check and processing […]

[1] = PDZ domain PARD3-1, first of two lines so named (r186)

`CC[C@H](C)[C@H](NC(=O)[C@H](CCC(N)=O)NC(=O)[C@@H](NC(=O)[C@H](Cc1c[nH]cn1)NC(=O)[C@H](CCC(N)=O)NC(=O)[C@H](CC(=O)O)NC(=O)[C@H](CCC(=O)O)NC(=O)[C@H](CC(=O)O)NC(=O)CCC(=O)NCCCOCCOCCOCCCNC(=O)CCCC[C@@H]1SC[C@@H]2NC(=O)N[C@@H]21)[C@@H](C)O)C(=O)N[C@H](C(=O)N[C@@H](CCCNC(=N)N)C(=O)N[C@H](C(=O)O)C(C)C)[C@@H](C)O` [PTEN_KR] ({X1-Suc}-DEDQHTQITRV-OH) was tested, and the “number of additional new PDZ partners not detected for PTEN_11” value (BI>0.20, compared with PTEN_11) was ≥ 11, the BI (PDZ domain MPDZ-2) was 0.021 and the BI (PDZ domain MPDZ-3) was 0.034. It also gave a BI (PDZ domain MPDZ-4) of -0.021, a BI (PDZ domain MPDZ-5) of 0.058 and a BI (PDZ domain MPDZ-6) of 0.033. It also gave a BI (PDZ domain MPDZ-7) of 0.267, a BI (PDZ domain MPDZ-8) of 0.128 and a BI (PDZ domain MPDZ-13) of 0.454. It also gave a BI (PDZ domain MPP1-1) of -0.046, a BI (PDZ domain MPP2-1) of -0.03 and a BI (PDZ domain MPP3-1) of -0.023. For the same compound, the BI (PDZ domain MPP4-1) was 0.067, the BI (PDZ domain MPP5-1) was -0.045 and the BI (PDZ domain MPP6-1) was -0.058. The BI (PDZ domain MPP7-1) was -0.023, the BI (PDZ domain NHERF1-2) was 0.063 and the BI (PDZ domain NHERF3-2) was 0.002. For the same compound, the BI (PDZ domain NHERF3-3) was 0.185, the BI (PDZ domain NHERF4-1) was 0.041 and the BI (PDZ domain NHERF4-2) was -0.071. For the same compound, the BI (PDZ domain NHERF4-3) was -0.035, the BI (PDZ domain NHERF4-4) was 0.01 and the BI (PDZ domain NOS1-1) was 0.039. The BI [1] was 0.3, the “Log(Kd)” value [1] was 4.255 and the BI (PDZ domain PARD3-1, second of two lines so named (r187)) was -0.046. The BI (PDZ domain PARD3B-1) was -0.02, the BI (PDZ domain PARD3B-2) was -0.019 and the BI (PDZ domain PARD3B-3) was -0.035. The BI (PDZ domain PARD6G-1) was -0.023, the BI (PDZ domain PDLIM1-1) was -0.2 and the BI (PDZ domain PDLIM2-1) was 0.034. For the same compound, the BI (PDZ domain PDLIM3-1) was -0.065, the BI (PDZ domain PDLIM4-1) was -0.087 and the BI (PDZ domain PDLIM5-1) was 0.086. For the same compound, the BI (PDZ domain PDLIM7-1) was -0.042, the BI (PDZ domain PDZD2-1) was -0.056 and the BI (PDZ domain PDZD2-3) was -0.096. It also gave a BI (PDZ domain PDZD2-4) of -0.092, a BI (PDZ domain PDZD2-5) of -0.089 and a BI (PDZ domain PDZD2-6) of 0.089. It also gave a BI (PDZ domain PDZD4-1) of 0.031, a BI (PDZ domain PDZD7-1) of -0.024 and a BI (PDZ domain PDZD7-2) of -0.039. The BI (PDZ domain PDZD7-3) was 0.756, the BI (PDZ domain PDZD8-1) was 0.006 and the BI (PDZ domain PDZD11-1) was -0.048. It also gave a BI (PDZ domain PDZRN4-1) of 0.048, a BI (PDZ domain PDZRN4-2) of -0.071 and a BI (PDZ domain PPP1R9A-1) of 0.012. For the same compound, the BI (PDZ domain PPP1R9B-1) was 0.038, the BI (PDZ domain PREX2-2) was -0.004 and the BI (PDZ domain PRX-1) was 0.025. For the same compound, the BI (PDZ domain PSMD9-1) was -0.039, the BI (PDZ domain PTPN3-1) was 0.12 and the BI (PDZ domain PTPN4-1) was -0.038. The BI (PDZ domain PTPN13-1) was -0.017, the BI (PDZ domain PTPN13-5) was 0.096 and the BI (PDZ domain RAPGEF2-1) was -0.11. It also gave a BI (PDZ domain RHPN2-1) of -0.087, a BI (PDZ domain RIMS1-1) of 0.013 and a BI (PDZ domain SCRIB-1) of 0.042. It also gave a BI (PDZ domain SCRIB-2) of 0.147, a BI (PDZ domain SCRIB-4) of 0.039 and a BI (PDZ domain SDCBP-2) of -0.067. The BI (PDZ domain SHANK1-1) was 0.547, the BI (PDZ domain SHANK3-1) was 0.554 and the BI (PDZ domain SHROOM2-1) was 0.058. The BI (PDZ domain SHROOM3-1) was 0.042, the BI (PDZ domain SHROOM4-1) was -0.148 and the BI (PDZ domain SIPA1L2-1) was 0.064. For the same compound, the BI (PDZ domain SIPA1L3-1) was -0.006, the BI (PDZ domain SNTA1-1) was 0.395 and the BI (PDZ domain SNTB1-1) was 0.503. It also gave a BI (PDZ domain SNTG1-1) of 0.076, a BI (PDZ domain SNTG2-1) of 0.383 and a BI (PDZ domain STXB4-1) of -0.075. The BI (PDZ domain SYNJ2BP-1) was -0.026, the BI (PDZ domain SYNP2-1) was -0.044 and the BI (PDZ domain SYNPO2L-1) was -0.021. For the same compound, the BI (PDZ domain TIAM2-1) was 0.037, the BI (PDZ domain TJP1-2) was -0.006 and the BI (PDZ domain TJP1-3) was 0.099. For the same compound, the BI (PDZ domain TJP2-1) was 0.086, the BI (PDZ domain TJP2-2) was -0.005 and the BI (PDZ domain TJP2-3) was -0.025. It also gave a BI (PDZ domain TJP3-2) of 0.112, a BI (PDZ domain TJP3-3) of 0.12 and a BI (PDZ domain TX1B3-1) of -0.019. The BI (PDZ domain USH1C-1) was -0.098, the BI (PDZ domain USH1C-2) was -0.039 and the BI (PDZ domain USH1C-3) was -0.061. For the same compound, the “number of PDZ domains identified as potential binders (BI>0.20)” value (holdup, singlicate, threshold BI>0.20) was 37 PDZ domains, the “maximal BI” value (holdup, singlicate, highest BI in the PDZome profile, BI standard error ~0.07) was 0.86 and the “binding of several PDZ domains (in words)” value (including several ones from MAGI and NHERF) was “detectably bound”. The “Max BI” value (maximum over PDZome) was 0.86 and the “number of partners detected for PTEN_KR and not for PTEN_Ac” value (over a total of 37) was 8.
